What was measured:
Format in all cases: in vivo
[1] = test system: barnyardgrass (Echinochloa crus-galli); assay: Test A pre-/postemergence plant response; details: for Barnyardgrass plant response rating: visual injury, 0 to 100 scale (0 no effect, 100 complete control), approx. ten days
Outline: (§1)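 Seeds planted in loam soil/sand blend; test chemicals in non-phytotoxic solvent mixture with surfactant applied as directed soil spray preemergence and, concurrently, postemergence to plants 2–10 cm tall at one- to two-leaf stage. Greenhouse ~10 days; visual injury vs untreated controls, 0 (no effect) to 100 (complete control).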

[2] = test system: giant foxtail (Setaria faberii); assay: Test A pre-/postemergence plant response; details: for Foxtail, Giant plant response rating: visual injury, 0 to 100 scale (0 no effect, 100 complete control), approx. ten days
Outline: as §1

[3] = test system: pigweed (Amaranthus retroflexus); assay: Test A pre-/postemergence plant response; details: for Pigweed plant response rating: visual injury, 0 to 100 scale (0 no effect, 100 complete control), approx. ten days
Outline: as §1

[4] = test system: wheat (Triticum aestivum); assay: Test A pre-/postemergence plant response; details: for Wheat plant response rating: visual injury, 0 to 100 scale (0 no effect, 100 complete control), approx. ten days
Outline: as §1

[5] = test system: velvetleaf (Abutilon theophrasti); assay: Test A pre-/postemergence plant response; details: for Velvetleaf plant response rating: visual injury, 0 to 100 scale (0 no effect, 100 complete control), approx. ten days
Outline: as §1

[6] = test system: large crabgrass (Digitaria sanguinalis); assay: Test A pre-/postemergence plant response; details: for Crabgrass, Large plant response rating: visual injury, 0 to 100 scale (0 no effect, 100 complete control), approx. ten days
Outline: as §1

[7] = test system: morningglory (Ipomoea spp.); assay: Test A pre-/postemergence plant response; details: for Morningglory plant response rating: visual injury, 0 to 100 scale (0 no effect, 100 complete control), approx. ten days
Outline: as §1

corn (Zea mays) = assay: Test A pre-/postemergence plant response; details: for Corn plant response rating: visual injury, 0 to 100 scale (0 no effect, 100 complete control), approx. ten days
Outline: as §1

[8] = test system: umbrella sedge (Cyperus difformis); assay: Test B flooded paddy test; details: for Plant response rating, Flood, Sedge, Umbrella: 250 g ai/ha, flooded paddy test, visual rating on 0 to 100 scale (0 no effect, 100 complete control) after 13 to 15 days; for Plant response rating, Sedge, Umbrella: Flood (flooded paddy test), 13 to 15 days; for Sedge, Umbrella plant response rating: Flood, 31 g ai/ha, scale 0 to 100 (0 no effect, 100 complete control)
Outline: (§2)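 Visual scores run from 0 (no effect) to 100 (complete control), assigned by comparison with controls 13 to 15 days after treatment. Test compounds went straight into water standing 3 cm above the soil, around plants at the 2-leaf stage kept in a greenhouse.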

[9] = test system: barnyardgrass (Echinochloa crus-galli); assay: Test B flooded paddy test; details: for Plant response rating, Flood, Barnyardgrass: 250 g ai/ha, flooded paddy test, visual rating on 0 to 100 scale (0 no effect, 100 complete control) after 13 to 15 days; for Plant response rating, Barnyardgrass: Flood (flooded paddy test), 13 to 15 days; for Barnyardgrass plant response rating: Flood, 31 g ai/ha, scale 0 to 100 (0 no effect, 100 complete control)
Outline: as §2

rice (Oryza sativa) = assay: Test B flooded paddy test; details: for Plant response rating, Flood, Rice: 250 g ai/ha, flooded paddy test, visual rating on 0 to 100 scale (0 no effect, 100 complete control) after 13 to 15 days; for Plant response rating, Rice: Flood (flooded paddy test), 13 to 15 days; for Rice plant response rating: Flood, 31 g ai/ha, scale 0 to 100 (0 no effect, 100 complete control)
Outline: as §2

[10] = test system: ducksalad (Heteranthera limosa); assay: Test B flooded paddy test; details: for Plant response rating, Flood, Ducksalad: 250 g ai/ha, flooded paddy test, visual rating on 0 to 100 scale (0 no effect, 100 complete control) after 13 to 15 days; for Plant response rating, Ducksalad: Flood (flooded paddy test), 13 to 15 days; for Ducksalad plant response rating: Flood, 31 g ai/ha, scale 0 to 100 (0 no effect, 100 complete control)
Outline: as §2

[11] = Postemergence, 125 g ai/ha, 0 to 100 scale where 0 is no effect and 100 is complete control
[12] = Preemergence, 125 g ai/ha, 0 to 100 scale, 0 = no effect, 100 = complete control
[13] = Preemergence, 500 g ai/ha, 0 to 100 scale, 0 = no effect, 100 = complete control
[14] = 62 g ai/ha, scale of 0 to 100 where 0 is no effect and 100 is complete control
[15] = 125 g ai/ha, scale 0 to 100, 0 is no effect, 100 is complete control

Q: Which results are given for O=C1CCCC(O)=C1C(=O)c1cnc(-c2ccccc2)n(C2CCCCCCC2)c1=O [Compound 215]?
A: Plant response rating, Barnyardgrass [1, 11]: 90; Barnyardgrass plant response rating ([1]; Postemergence, 500 g ai/ha): 100; Plant response rating, Barnyardgrass [1, 12]: 0; Plant response rating, Barnyardgrass [1, 13]: 20; Plant response rating, Foxtail, Giant [2, 11]: 40; Foxtail, Giant plant response rating ([2]; Postemergence, 500 g ai/ha): 80; Plant response rating, Foxtail, Giant [2, 12]: 10; Plant response rating, Foxtail, Giant [2, 13]: 30; Plant response rating, Pigweed [3, 11]: 90; Pigweed plant response rating ([3]; Postemergence, 500 g ai/ha): 100; Plant response rating, Pigweed [3, 12]: 20; Plant response rating, Pigweed [3, 13]: 90; Plant response rating, Wheat [4, 11]: 0; Wheat plant response rating ([4]; Postemergence, 500 g ai/ha): 0; Plant response rating, Wheat [4, 12]: 0; Plant response rating, Wheat [4, 13]: 0; Plant response rating, Velvetleaf [5, 11]: 100; Velvetleaf plant response rating ([5]; Postemergence, 500 g ai/ha): 100; Plant response rating, Velvetleaf [5, 12]: 0; Plant response rating, Velvetleaf [5, 13]: 70; Plant response rating, Crabgrass, Large [6, 11]: 40; Crabgrass, Large plant response rating ([6]; Postemergence, 500 g ai/ha): 70; Plant response rating, Crabgrass, Large [6, 12]: 0; Plant response rating, Crabgrass, Large [6, 13]: 60; Plant response rating, Morningglory [7, 11]: 100; Morningglory plant response rating ([7]; Postemergence, 500 g ai/ha): 100; Plant response rating, Morningglory [7, 12]: 0; Plant response rating, Morningglory [7, 13]: 70; Plant response rating, Corn (corn (Zea mays); [11]): 0; Corn plant response rating (corn (Zea mays); Postemergence, 500 g ai/ha): 30; Plant response rating, Corn (corn (Zea mays); [12]): 0; Plant response rating, Corn (corn (Zea mays); [13]): 0; Plant response rating, Flood, Sedge, Umbrella [8]: 90; Plant response rating, Sedge, Umbrella [8, 14]: 0; Plant response rating, Sedge, Umbrella [8, 15]: 75; Sedge, Umbrella plant response rating [8]: 0; Plant response rating, Flood, Barnyardgrass [9]: 40; Plant response rating, Barnyardgrass [9, 14]: 0; Plant response rating, Barnyardgrass [9, 15]: 30; Barnyardgrass plant response rating [9]: 0; Plant response rating, Flood, Rice (rice (Oryza sativa)): 15; Plant response rating, Rice (rice (Oryza sativa); [14]): 0; Plant response rating, Rice (rice (Oryza sativa); [15]): 0; Rice plant response rating (rice (Oryza sativa)): 0; Plant response rating, Flood, Ducksalad [10]: 85; Plant response rating, Ducksalad [10, 14]: 75; Plant response rating, Ducksalad [10, 15]: 85; Ducksalad plant response rating [10]: 70

Q: How did the “Plant response rating, Barnyardgrass” value [1, 11] turn out when CCCn1c(-c2cc(F)cc(F)c2)ncc(C(=O)C2=C(O)CC(C)(C)CC2=O)c1=O [Compound 224] was run?
A: 90

Q: What about the “Barnyardgrass plant response rating” value ([1]; Postemergence, 500 g ai/ha) of the same compound?
A: 90

Q: What about the “Plant response rating, Barnyardgrass” value [1, 12] of the same compound?
A: 0

Q: And the “Plant response rating, Barnyardgrass” value [1, 13]?
A: 90

Q: What about the “Plant response rating, Foxtail, Giant” value [2, 11] of the same compound?
A: 70

Q: What about the “Foxtail, Giant plant response rating” value ([2]; Postemergence, 500 g ai/ha) of the same compound?
A: 100

Q: What about the “Plant response rating, Foxtail, Giant” value [2, 12] of the same compound?
A: 20

Q: And the “Plant response rating, Foxtail, Giant” value [2, 13]?
A: 70

Q: What about the “Plant response rating, Pigweed” value [3, 11] of the same compound?
A: 100

Q: What about the “Pigweed plant response rating” value ([3]; Postemergence, 500 g ai/ha) of the same compound?
A: 100

Q: What about the “Plant response rating, Pigweed” value [3, 12] of the same compound?
A: 70

Q: What about the “Plant response rating, Pigweed” value [3, 13] of the same compound?
A: 100

Q: What about the “Plant response rating, Wheat” value [4, 11] of the same compound?
A: 0

Q: What about the “Wheat plant response rating” value ([4]; Postemergence, 500 g ai/ha) of the same compound?
A: 60

Q: What about the “Plant response rating, Wheat” value [4, 12] of the same compound?
A: 0

Q: And the “Plant response rating, Wheat” value [4, 13]?
A: 30

Q: And the “Plant response rating, Velvetleaf” value [5, 11]?
A: 100

Q: What about the “Velvetleaf plant response rating” value ([5]; Postemergence, 500 g ai/ha) of the same compound?
A: 100

Q: What about the “Plant response rating, Velvetleaf” value [5, 12] of the same compound?
A: 50

Q: What about the “Plant response rating, Velvetleaf” value [5, 13] of the same compound?
A: 80

Q: And the “Plant response rating, Crabgrass, Large” value [6, 11]?
A: 70

Q: What about the “Crabgrass, Large plant response rating” value ([6]; Postemergence, 500 g ai/ha) of the same compound?
A: 100

Q: And the “Plant response rating, Crabgrass, Large” value [6, 12]?
A: 70

Q: What about the “Plant response rating, Crabgrass, Large” value [6, 13] of the same compound?
A: 100

Q: And the “Plant response rating, Morningglory” value [7, 11]?
A: 100

Q: And the “Morningglory plant response rating” value ([7]; Postemergence, 500 g ai/ha)?
A: 100

Q: What about the “Plant response rating, Morningglory” value [7, 13] of the same compound?
A: 30

Q: What about the “Plant response rating, Corn” value (corn (Zea mays); [11]) of the same compound?
A: 10

Q: What about the “Corn plant response rating” value (corn (Zea mays); Postemergence, 500 g ai/ha) of the same compound?
A: 50

Q: What about the “Plant response rating, Corn” value (corn (Zea mays); [12]) of the same compound?
A: 20

Q: And the “Plant response rating, Corn” value (corn (Zea mays); [13])?
A: 20

Q: And the “Plant response rating, Flood, Sedge, Umbrella” value [8]?
A: 75

Q: What about the “Plant response rating, Sedge, Umbrella” value [8, 14] of the same compound?
A: 0

Q: And the “Plant response rating, Sedge, Umbrella” value [8, 15]?
A: 0

Q: What about the “Sedge, Umbrella plant response rating” value [8] of the same compound?
A: 0

Q: What about the “Plant response rating, Flood, Barnyardgrass” value [9] of the same compound?
A: 30

Q: And the “Plant response rating, Barnyardgrass” value [9, 14]?
A: 0

Q: What about the “Plant response rating, Barnyardgrass” value [9, 15] of the same compound?
A: 0

Q: What about the “Barnyardgrass plant response rating” value [9] of the same compound?
A: 0

Q: What about the “Plant response rating, Flood, Rice” value (rice (Oryza sativa)) of the same compound?
A: 60

Q: And the “Plant response rating, Rice” value (rice (Oryza sativa); [14])?
A: 0

Q: And the “Plant response rating, Rice” value (rice (Oryza sativa); [15])?
A: 0

Q: What about the “Rice plant response rating” value (rice (Oryza sativa)) of the same compound?
A: 0

Q: What about the “Plant response rating, Flood, Ducksalad” value [10] of the same compound?
A: 75

Q: And the “Plant response rating, Ducksalad” value [10, 14]?
A: 0

Q: And the “Plant response rating, Ducksalad” value [10, 15]?
A: 0

Q: And the “Ducksalad plant response rating” value [10]?
A: 0

From US8952024B2, “Herbicidal pyrimidone derivatives” (E I du Pont de Nemours and Company, priority 2009, dated 2015)
